In PubChem BioAssay AID328 (DTP/NCI, 2004):
Several values for one entry are separate records, joined by “and”; a condition that tells them apart may be missing. Equal entries are not always repeated. Inconclusive results and toxic doses are left out. Non-standard residues stand in square brackets, D forms with d. Residues, ends and D or L forms follow the SMILES beside them. Ac5c = NC1(C(=O)O)CCCC1

System: BDF1 mice, P388 leukemia ip, median survival T/C
Assay: NCI In Vivo Anticancer Drug Screen. Data for tumor model P388 Leukemia (intraperitoneal) in B6D2F1 (BDF1) mice
Details: endpoint: median survival time, higher = longer survival
Method in brief: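 Steps: implant the tumour, treat one group with compound and another with vehicle, record survival, then divide treated by control.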

[1] = dose: 100.0 mg/kg/injection, schedule: Q01DX009 (ip), vehicle: saline with Tween-80
[2] = dose: 100.0 mg/kg/injection, schedule: Q04DX003 (ip), vehicle: saline with Tween-80
[3] = dose: 200.0 mg/kg/injection, schedule: Q01DX009 (ip), vehicle: saline with Tween-80
[4] = dose: 200.0 mg/kg/injection, schedule: Q04DX003 (ip), vehicle: saline with Tween-80
[5] = dose: 400.0 mg/kg/injection, schedule: Q04DX003 (ip), vehicle: saline with Tween-80
[6] = dose: 100.0 mg/kg/injection, schedule: Q01DX001 (ip), vehicle: Klucel (hydroxypropylcellulose) (HPC)
[7] = dose: 100.0 mg/kg/injection, schedule: Q01DX009 (ip), vehicle: Klucel (hydroxypropylcellulose) (HPC)
[8] = dose: 100.0 mg/kg/injection, schedule: Q04DX003 (ip), vehicle: Klucel (hydroxypropylcellulose) (HPC)
[9] = dose: 200.0 mg/kg/injection, schedule: Q01DX001 (ip), vehicle: Klucel (hydroxypropylcellulose) (HPC)
[10] = dose: 200.0 mg/kg/injection, schedule: Q04DX003 (ip), vehicle: Klucel (hydroxypropylcellulose) (HPC)
[11] = dose: 400.0 mg/kg/injection, schedule: Q04DX003 (ip), vehicle: Klucel (hydroxypropylcellulose) (HPC)
[12] = dose: 12.5 mg/kg/injection, schedule: Q04DX003 (ip), vehicle: saline
[13] = dose: 25.0 mg/kg/injection, schedule: Q04DX003 (ip), vehicle: saline
[14] = dose: 50.0 mg/kg/injection, schedule: Q01DX009 (ip), vehicle: saline
[15] = dose: 50.0 mg/kg/injection, schedule: Q04DX003 (ip), vehicle: saline
[16] = dose: 100.0 mg/kg/injection, schedule: Q01DX009 (ip), vehicle: saline
[17] = dose: 100.0 mg/kg/injection, schedule: Q04DX003 (ip), vehicle: saline
[18] = dose: 200.0 mg/kg/injection, schedule: Q01DX009 (ip), vehicle: saline
[19] = dose: 200.0 mg/kg/injection, schedule: Q04DX003 (ip), vehicle: saline
[20] = dose: 50.0 mg/kg/injection, schedule: Q01DX009 (ip), vehicle: saline with Tween-80
[21] = dose: 400.0 mg/kg/injection, schedule: Q01DX009 (ip), vehicle: saline

## COC(=O)CCSCCC(=O)OC
[1]
  T/C: 100 % of control
[2]
  T/C: 110 % of control
[3]
  T/C: 100 % of control
[4]
  T/C: 100 % of control
dose: 400.0 mg/kg/injection, schedule: Q01DX009 (ip), vehicle: saline with Tween-80
  T/C: 100 % of control
[5]
  T/C: 105 % of control

## CSc1cccc(NC(=O)Oc2ccc([N+](=O)[O-])cc2Cl)c1
dose: 12.5 mg/kg/injection, schedule: Q01DX009 (ip), vehicle: DMSO
  T/C: 93 % of control
dose: 50.0 mg/kg/injection, schedule: Q01DX009 (ip), vehicle: DMSO
  T/C: 89 % of control

## CCOc1ccc2nc(N)sc2c1
dose: 25.0 mg/kg/injection, schedule: Q01DX009 (ip), vehicle: Klucel (hydroxypropylcellulose) (HPC)
  T/C: 118 % of control
dose: 50.0 mg/kg/injection, schedule: Q01DX009 (ip), vehicle: Klucel (hydroxypropylcellulose) (HPC)
  T/C: 109 % of control
[6]
  T/C: 86 % of control
[7]
  T/C: 104 % of control and 109 % of control
[8]
  T/C: 104 % of control
[9]
  T/C: 100 % of control
[10]
  T/C: 95 % of control
[11]
  T/C: 91 % of control

## S
[7]
  T/C: 100 % of control
[8]
  T/C: 86 % of control
dose: 200.0 mg/kg/injection, schedule: Q01DX009 (ip), vehicle: Klucel (hydroxypropylcellulose) (HPC)
  T/C: 110 % of control
[10]
  T/C: 100 % of control
[11]
  T/C: 100 % of control

## Cc1cc(S(=O)(=O)c2ccc(Cl)cc2)nc(S(=O)(=O)c2ccc(Cl)cc2)c1C#N
dose: 50.0 mg/kg/injection, schedule: Q01DX005 (ip), vehicle: saline with Tween-80
  T/C: 110 % of control
dose: 100.0 mg/kg/injection, schedule: Q01DX005 (ip), vehicle: saline with Tween-80
  T/C: 110 % of control

## O=[N+]([O-])c1ccccn1
dose: 6.25 mg/kg/injection, schedule: Q04DX003 (ip), vehicle: saline
  T/C: 100 % of control
[12]
  T/C: 100 % of control
[13]
  T/C: 104 % of control

## Cc1c2ccccc2c(CSC(=N)N)c2ccccc12
dose: 9.38 mg/kg/injection, schedule: Q04DX003 (ip), vehicle: saline with Tween-80
  T/C: 154 % of control
[12]
  T/C: 160 % of control
[13]
  T/C: 180 % of control

## CSC1C(=O)Nc2cccc(C#N)c21 (stereo not drawn)
dose: 50.0 mg/kg/injection, schedule: Q04DX002 (ip), vehicle: saline with Tween-80
  T/C: 102 % of control
dose: 100.0 mg/kg/injection, schedule: Q04DX002 (ip), vehicle: saline with Tween-80
  T/C: 98 % of control
dose: 200.0 mg/kg/injection, schedule: Q04DX002 (ip), vehicle: saline with Tween-80
  T/C: 102 % of control

## COc1cc(/C=C2/CCCCC2=O)ccc1O
dose: 100.0 mg/kg/injection, schedule: Q01DX001 (ip), vehicle: other
  T/C: 104 % of control
dose: 200.0 mg/kg/injection, schedule: Q01DX001 (ip), vehicle: other
  T/C: 95 % of control
dose: 400.0 mg/kg/injection, schedule: Q01DX001 (ip), vehicle: other
  T/C: 104 % of control

## [Au].c1ccc(-c2nn[nH]n2)cc1.c1ccc(P(c2ccccc2)c2ccccc2)cc1
dose: 6.25 mg/kg/injection, schedule: Q01DX009 (ip), vehicle: saline with Tween-80
  T/C: 104 % of control
dose: 12.5 mg/kg/injection, schedule: Q01DX009 (ip), vehicle: saline with Tween-80
  T/C: 106 % of control
dose: 25.0 mg/kg/injection, schedule: Q01DX009 (ip), vehicle: saline with Tween-80
  T/C: 123 % of control

## CCC(C)(C)C(=O)O
[14]
  T/C: 100 % of control
[15]
  T/C: 100 % of control
[16]
  T/C: 105 % of control
[2]
  T/C: 105 % of control
[17]
  T/C: 104 % of control
[18]
  T/C: 110 % of control
[4]
  T/C: 110 % of control
[19]
  T/C: 100 % of control
[5]
  T/C: 100 % of control

## COC1=C(C2=C(OC)C(=O)c3cc4oc(C)cc(=O)c4c(O)c3C2=O)C(=O)c2c(cc3oc(C)cc(=O)c3c2O)C1=O
dose: 0.37 mg/kg/injection, schedule: Q01DX009 (ip), vehicle: saline
  T/C: 99 % of control
dose: 0.75 mg/kg/injection, schedule: Q01DX009 (ip), vehicle: saline
  T/C: 105 % of control
dose: 1.5 mg/kg/injection, schedule: Q01DX009 (ip), vehicle: saline
  T/C: 111 % of control
dose: 3.0 mg/kg/injection, schedule: Q01DX009 (ip), vehicle: saline
  T/C: 101 % of control

## Nc1nc(SCc2ccccc2)c2ncn(C3OC(CO)CC3O)c2n1 (stereo not drawn)
dose: 100.0 mg/kg/injection, schedule: Q01DX009 (ip), vehicle: saline sonified
  T/C: 100 % of control
dose: 100.0 mg/kg/injection, schedule: Q04DX003 (ip), vehicle: saline sonified
  T/C: 109 % of control
dose: 200.0 mg/kg/injection, schedule: Q01DX009 (ip), vehicle: saline sonified
  T/C: 100 % of control
dose: 200.0 mg/kg/injection, schedule: Q04DX003 (ip), vehicle: saline sonified
  T/C: 109 % of control
dose: 400.0 mg/kg/injection, schedule: Q01DX009 (ip), vehicle: saline sonified
  T/C: 113 % of control
dose: 400.0 mg/kg/injection, schedule: Q04DX003 (ip), vehicle: saline sonified
  T/C: 109 % of control

## Nc1nc(N)c(Cl)c(Nc2cccc(Cl)c2)n1
[20]
  T/C: 102 % of control
[1]
  T/C: 103 % of control
[3]
  T/C: 105 % of control

## NCC(=O)NC1(C(=O)O)CCCC1 (H-Gly-[Ac5c]-OH)
[16]
  T/C: 113 % of control
[18]
  T/C: 90 % of control

## Cc1c(N)cc([N+](=O)[O-])c(C)c1[N+](=O)[O-]
[20]
  T/C: 95 % of control
[1]
  T/C: 90 % of control

## c1nc(SSc2ncnc3nc[nH]c23)c2[nH]cnc2n1
dose: 3.7 mg/kg/injection, schedule: Q04DX003 (ip), vehicle: saline
  T/C: 87 % of control
dose: 7.5 mg/kg/injection, schedule: Q04DX003 (ip), vehicle: saline
  T/C: 91 % of control
dose: 25.0 mg/kg/injection, schedule: Q04DX003 (ip), vehicle: saline with Tween-80
  T/C: 100 % of control
[15]
  T/C: 120 % of control
[2]
  T/C: 111 % of control
[17]
  T/C: 87 % of control
dose: 150.0 mg/kg/injection, schedule: Q04DX003 (ip), vehicle: saline
  T/C: 90 % of control
dose: 225.0 mg/kg/injection, schedule: Q04DX003 (ip), vehicle: saline
  T/C: 90 % of control
dose: 335.0 mg/kg/injection, schedule: Q04DX003 (ip), vehicle: saline
  T/C: 90 % of control

## CC(=O)Nc1cc(C)no1
[16]
  T/C: 90 % of control
[17]
  T/C: 109 % of control
[18]
  T/C: 95 % of control
[19]
  T/C: 109 % of control
[21]
  T/C: 100 % of control
dose: 400.0 mg/kg/injection, schedule: Q04DX003 (ip), vehicle: saline
  T/C: 104 % of control

## CC(C)CCCC(C)C1CCC2C3CC=C4CC(S[As](C)C)CCC4(C)C3CCC12C (stereo not drawn)
[20]
  T/C: 98 % of control
[1]
  T/C: 95 % of control
[3]
  T/C: 98 % of control

## Cc1onc(-c2ccccc2)c1NC(=O)OCc1ccc(-c2cc(C(F)(F)F)cc(C(F)(F)F)c2)o1
[20]
  T/C: 97 % of control
[1]
  T/C: 99 % of control
[3]
  T/C: 99 % of control

## CC(=O)OC1(CSc2ccccc2)CCCCC1
[20]
  T/C: 93 % of control

## CC(=O)C(=O)C(C)=O
[6]
  T/C: 105 % of control
[9]
  T/C: 100 % of control
dose: 400.0 mg/kg/injection, schedule: Q01DX001 (ip), vehicle: Klucel (hydroxypropylcellulose) (HPC)
  T/C: 105 % of control

## CCCC1CC[N-]CC1.CCCC1CC[N-]CC1.CCCC1CC[N-]CC1.CCCC1CC[N-]CC1.O=C([O-])C(=O)[O-].O=C([O-])C(=O)[O-].[Cl][Rh][Cl].[Nb+5].[O-][O-].[O-][O-]
dose: 12.5 mg/kg/injection, schedule: Q01DX009 (ip), vehicle: saline
  T/C: 112 % of control
dose: 25.0 mg/kg/injection, schedule: Q01DX009 (ip), vehicle: saline
  T/C: 91 % of control and 100 % of control
[14]
  T/C: 87 % of control and 97 % of control and 98 % of control
[16]
  T/C: 87 % of control
[18]
  T/C: 99 % of control
[21]
  T/C: 91 % of control and 94 % of control

## O=[N+]([O-])c1ccc(S(=O)c2ccc([N+](=O)[O-])c3no[n+]([O-])c23)cc1 (stereo not drawn)
dose: 10.0 mg/kg/injection, schedule: Q01DX009 (ip), vehicle: saline with Tween-80
  T/C: 104 % of control
dose: 20.0 mg/kg/injection, schedule: Q01DX009 (ip), vehicle: saline with Tween-80
  T/C: 100 % of control
dose: 40.0 mg/kg/injection, schedule: Q01DX009 (ip), vehicle: saline with Tween-80
  T/C: 102 % of control
